Measured values reported in patent US20060069132A1, “Azolecarboxamide herbicides” (priority 2004, published 2006).

Legend:
[1] = tested on: pigweed; assay: Test C pre-/postemergence herbicide test; format: in vivo, Amaranthus retroflexus; details: for Pigweed plant response rating: 500 g ai/ha
Procedure, shortened: (§1)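 Seeds were planted and sprayed preemergence with test chemicals in a non-phytotoxic solvent mixture containing surfactant; postemergence treatments went onto plants 2 to 18 cm tall (1- to 4-leaf stage). After 12 to 14 days in a greenhouse, injury was rated visually against untreated controls on a 0–100 scale.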

[2] = tested on: eastern black nightshade; assay: Test C pre-/postemergence herbicide test; format: in vivo, Solanum ptycanthum; details: for Plant response rating (0 = no effect, 100 = complete control), Nightshade: 62 g ai/ha; for Plant response rating (0 = no effect, 100 = complete control), Nightshade / Plant response rating, Nightshade: preemergence; for Plant response rating, Nightshade: visual, 12 to 14 days; for Nightshade plant response rating: Preemergence, 500 g ai/ha, scale 0 to 100, 0 no effect, 100 complete control
Procedure, shortened: as §1

[3] = tested on: johnsongrass; assay: Test C pre-/postemergence herbicide test; format: in vivo, Sorghum halepense; details: for Johnsongrass plant response rating: 500 g ai/ha
Procedure, shortened: as §1

[4] = tested on: redroot pigweed; assay: Test A pre-/postemergence herbicide test; format: in vivo, Amaranthus retroflexus; details: for Plant response rating, Pigweed: Postemergence; for Pigweed plant response rating: Preemergence
Procedure, shortened: (§2)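 Seeds sown in sandy loam received a preemergence directed soil spray of compound in non-phytotoxic solvent with surfactant; postemergence plants (2–10 cm, one- to two-leaf stage) were sprayed to runoff at the same time. After ~10 days in greenhouse, injury was rated visually versus untreated controls (0 = no effect, 100 = complete control).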

[5] = tested on: corn; assay: Test C pre-/postemergence herbicide test; format: in vivo, Zea mays; details: for Corn plant response rating: 500 g ai/ha
Procedure, shortened: as §1

[6] = tested on: cocklebur; assay: Test C pre-/postemergence herbicide test; format: in vivo, Xanthium strumarium; details: for Cocklebur plant response rating: 500 g ai/ha
Procedure, shortened: as §1

[7] = tested on: Surinam grass; assay: Test C pre-/postemergence herbicide test; format: in vivo, Urochloa decumbens; details: for Surinam Grass plant response rating: 500 g ai/ha
Procedure, shortened: as §1

[8] = tested on: velvetleaf; assay: Test C pre-/postemergence herbicide test; format: in vivo, Abutilon theophrasti; details: for Velvetleaf plant response rating: 500 g ai/ha
Procedure, shortened: as §1

[9] = tested on: morningglory; assay: Test A pre-/postemergence herbicide test; format: in vivo, Ipomoea spp.; details: for Plant response rating, Morningglory: Postemergence; for Morningglory plant response rating: Preemergence
Procedure, shortened: as §2

[10] = tested on: chickweed; assay: Test C postemergence herbicide test; format: in vivo, Stellaria media; details: for Chickweed plant response rating: 500 g ai/ha
Procedure, shortened: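 Postemergence sprays were applied to plants 2 to 18 cm tall (1- to 4-leaf stage); in the flooded paddy test, barnyardgrass was grown to the 2-leaf stage. After 12 to 14 days in a greenhouse, injury was visually rated against untreated controls on a 0–100 scale (100 = complete control).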

[11] = tested on: morningglory; assay: Test C pre-/postemergence herbicide test; format: in vivo, Ipomoea coccinea; parameters: key to Plant response rating, Morningglory: 0 = no effect, 100 = complete control; details: for Morningglory plant response rating: 500 g ai/ha
Procedure, shortened: as §1

[12] = 125 g ai/ha, scale 0 (no effect) to 100 (complete control), visual, 12 to 14 days, preemergence
[13] = 250 g ai/ha, scale 0 to 100 (0 no effect, 100 complete control), visual, 12 to 14 days, preemergence
[14] = Postemergence, 250 g ai/ha, scale 0 to 100, 0 no effect, 100 complete control
[15] = Preemergence, scale 0 to 100, 0 no effect, 100 complete control
[16] = postemergence, 62 g ai/ha, scale 0 to 100
[17] = 125 g ai/ha, scale 0 (no effect) to 100 (complete control)
[18] = 250 g ai/ha, scale 0 to 100 (0 no effect, 100 complete control)
[19] = Postemergence, 125 g ai/ha, scale 0 to 100, 0 no effect, 100 complete control
[20] = 500 g ai/ha, 0 to 100 scale, 0 no effect, 100 complete control
[21] = 2000 g ai/ha, 0 to 100 scale, 0 no effect, 100 complete control
[22] = 500 g ai/ha, visual rating, 0 to 100 scale (0 no effect, 100 complete control)

C=CCNC(=O)c1cccc(NC(=O)c2cc(C(C)(C)C)nn2CC)c1 [Compound 46]
30: Plant response rating, Surinam Grass [7, 12]
70: Plant response rating, Cocklebur [6, 19] | Plant response rating, Cocklebur [6, 14] | Plant response rating, Chickweed [10, 19] | Plant response rating, Chickweed [10, 16]
65: Plant response rating, Morningglory [9, 21] | Morningglory plant response rating [9, 21]
80: Plant response rating, Johnsongrass [3, 12] | Corn plant response rating ([5]; Postemergence, scale 0 to 100) | Plant response rating, Corn [5, 19] | Plant response rating, Corn [5, 14] | Plant response rating, Corn [5, 16] | Surinam Grass plant response rating [7, 15] | Velvetleaf plant response rating ([8]; Postemergence, scale 0 to 100) | Plant response rating, Velvetleaf [8, 14] | Plant response rating, Chickweed [10, 14] | Morningglory plant response rating ([11]; Postemergence, scale 0 to 100)
90: Plant response rating (0 = no effect, 100 = complete control), Nightshade [2] | Plant response rating, Johnsongrass [3, 13] | Johnsongrass plant response rating ([3]; Postemergence, scale 0 to 100) | Plant response rating, Cocklebur [6, 13] | Cocklebur plant response rating ([6]; Postemergence, scale 0 to 100) | Cocklebur plant response rating [6, 15] | Plant response rating (0 = no effect, 100 = complete control), Velvetleaf ([8]; 62 g ai/ha, preemergence) | Plant response rating, Morningglory [11, 13] | Morningglory plant response rating [11, 15]
60: Plant response rating, Johnsongrass [3, 19] | Plant response rating, Johnsongrass [3, 16] | Plant response rating, Cocklebur [6, 16] | Plant response rating, Surinam Grass [7, 13] | Plant response rating, Morningglory [11, 14] | Plant response rating, Morningglory [11, 16]
10: Plant response rating, Corn [5, 13] | Corn plant response rating [5, 15] | Plant response rating (0 = no effect, 100 = complete control), Surinam Grass ([7]; 62 g ai/ha, preemergence)
50: Plant response rating (0 = no effect, 100 = complete control), Johnsongrass ([3]; 62 g ai/ha, preemergence) | Surinam Grass plant response rating ([7]; Postemergence, scale 0 to 100) | Plant response rating, Surinam Grass [7, 14] | Plant response rating, Velvetleaf [8, 16]
40: Plant response rating, Cocklebur [6, 12] | Plant response rating, Surinam Grass [7, 16] | Plant response rating, Morningglory [9, 20] | Morningglory plant response rating [9, 22]
20: Plant response rating (0 = no effect, 100 = complete control), Pigweed ([1]; 62 g ai/ha, preemergence)
100: Plant response rating, Pigweed [1, 12] | Plant response rating, Pigweed [1, 13] | Pigweed plant response rating ([1]; Postemergence, scale 0 to 100) | Plant response rating, Pigweed [1, 14] | Pigweed plant response rating [1, 15] | Plant response rating, Pigweed [1, 16] | Plant response rating, Nightshade [2, 17] | Plant response rating, Nightshade [2, 18] | Nightshade plant response rating [2] | Johnsongrass plant response rating [3, 15] | Plant response rating, Pigweed [4, 20] | Plant response rating, Pigweed [4, 21] | Pigweed plant response rating [4, 22] | Pigweed plant response rating [4, 21] | Plant response rating, Velvetleaf [8, 12] | Plant response rating, Velvetleaf [8, 13] | Velvetleaf plant response rating [8, 15] | Chickweed plant response rating ([10]; Postemergence, scale 0 to 100)
0: Plant response rating (0 = no effect, 100 = complete control), Corn ([5]; 62 g ai/ha, preemergence) | Plant response rating, Corn [5, 12] | Plant response rating (0 = no effect, 100 = complete control), Cocklebur ([6]; 62 g ai/ha, preemergence) | Plant response rating (0 = no effect, 100 = complete control), Morningglory ([11]; 62 g ai/ha, preemergence) | Plant response rating, Morningglory [11, 12]

C#CCNC(=O)c1cccc(NC(=O)c2cc(C(C)(C)C)nn2CC)c1 [Compound 47]
80: Corn plant response rating ([5]; Postemergence, scale 0 to 100) | Plant response rating, Corn [5, 14] | Surinam Grass plant response rating [7, 15] | Plant response rating, Velvetleaf [8, 14] | Plant response rating, Velvetleaf [8, 16]
25: Plant response rating, Morningglory [9, 21]
20: Plant response rating (0 = no effect, 100 = complete control), Johnsongrass ([3]; 62 g ai/ha, preemergence) | Plant response rating, Morningglory [9, 20] | Morningglory plant response rating [9, 22]
100: Plant response rating (0 = no effect, 100 = complete control), Pigweed ([1]; 62 g ai/ha, preemergence) | Plant response rating, Pigweed [1, 12] | Plant response rating, Pigweed [1, 13] | Pigweed plant response rating ([1]; Postemergence, scale 0 to 100) | Plant response rating, Pigweed [1, 14] | Pigweed plant response rating [1, 15] | Plant response rating, Pigweed [1, 16] | Plant response rating (0 = no effect, 100 = complete control), Nightshade [2] | Plant response rating, Nightshade [2, 17] | Plant response rating, Nightshade [2, 18] | Nightshade plant response rating [2] | Plant response rating, Johnsongrass [3, 12] | Plant response rating, Johnsongrass [3, 13] | Johnsongrass plant response rating [3, 15] | Plant response rating, Pigweed [4, 20] | Plant response rating, Pigweed [4, 21] | Pigweed plant response rating [4, 22] | Pigweed plant response rating [4, 21] | Cocklebur plant response rating [6, 15] | Plant response rating, Velvetleaf [8, 13] | Velvetleaf plant response rating [8, 15] | Chickweed plant response rating ([10]; Postemergence, scale 0 to 100)
60: Plant response rating, Surinam Grass [7, 13] | Plant response rating, Surinam Grass [7, 14]
30: Plant response rating, Johnsongrass [3, 19] | Plant response rating, Johnsongrass [3, 16] | Plant response rating, Surinam Grass [7, 16] | Morningglory plant response rating [9, 21]
10: Corn plant response rating [5, 15] | Plant response rating, Surinam Grass [7, 12]
90: Johnsongrass plant response rating ([3]; Postemergence, scale 0 to 100) | Plant response rating, Johnsongrass [3, 14] | Cocklebur plant response rating ([6]; Postemergence, scale 0 to 100) | Velvetleaf plant response rating ([8]; Postemergence, scale 0 to 100) | Plant response rating, Chickweed [10, 19] | Plant response rating, Chickweed [10, 14] | Plant response rating, Chickweed [10, 16] | Plant response rating, Morningglory [11, 13] | Morningglory plant response rating ([11]; Postemergence, scale 0 to 100) | Morningglory plant response rating [11, 15]
50: Plant response rating, Cocklebur [6, 16] | Plant response rating, Morningglory [11, 16]
0: Plant response rating (0 = no effect, 100 = complete control), Corn ([5]; 62 g ai/ha, preemergence) | Plant response rating, Corn [5, 12] | Plant response rating, Corn [5, 13] | Plant response rating (0 = no effect, 100 = complete control), Cocklebur ([6]; 62 g ai/ha, preemergence) | Plant response rating, Cocklebur [6, 12] | Plant response rating, Cocklebur [6, 13] | Plant response rating (0 = no effect, 100 = complete control), Surinam Grass ([7]; 62 g ai/ha, preemergence) | Plant response rating (0 = no effect, 100 = complete control), Morningglory ([11]; 62 g ai/ha, preemergence) | Plant response rating, Morningglory [11, 12]
70: Plant response rating, Corn [5, 19] | Plant response rating, Corn [5, 16] | Plant response rating, Cocklebur [6, 19] | Plant response rating, Cocklebur [6, 14] | Surinam Grass plant response rating ([7]; Postemergence, scale 0 to 100) | Plant response rating, Morningglory [11, 14]
40: Plant response rating (0 = no effect, 100 = complete control), Velvetleaf ([8]; 62 g ai/ha, preemergence) | Plant response rating, Velvetleaf [8, 12]
